Assay results: PubChem BioAssay (NCI)
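Step 1: Grow cells in 96-well plates. Step 2: Expose to compound for 48 hours at 5 concentrations. Step 3: Interpolate endpoints linearly; if unreached, use highest concentration. GI50 = concentration required for 50% inhibition of growth. The concentration for full growth arrest is given as TGI.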

Legend:
Test in all cases: NCI tumour cell line growth inhibition, 48 h
UO-31 renal = test system: UO-31 renal
EKVX NSCLC = test system: EKVX NSCLC
BT-549 breast = test system: BT-549 breast
SNB-75 CNS = test system: SNB-75 CNS
LOX IMVI melanoma = test system: LOX IMVI melanoma
SF-268 CNS = test system: SF-268 CNS
TK-10 renal = test system: TK-10 renal
MDA-MB-435 = test system: MDA-MB-435
HCC-2998 colon = test system: HCC-2998 colon
MDA-MB-231 breast = test system: MDA-MB-231 breast

Row | Compound | GI50 (UO-31 renal) [nM] | TGI (UO-31 renal) [nM] | GI50 (EKVX NSCLC) [nM] | TGI (EKVX NSCLC) [nM] | GI50 (BT-549 breast) [nM] | TGI (BT-549 breast) [nM] | GI50 (SNB-75 CNS) [nM] | TGI (SNB-75 CNS) [nM] | GI50 (LOX IMVI melanoma) [nM] | TGI (LOX IMVI melanoma) [nM] | GI50 (SF-268 CNS) [nM] | TGI (SF-268 CNS) [nM] | GI50 (TK-10 renal) [nM] | TGI (TK-10 renal) [nM] | GI50 (MDA-MB-435) [nM] | TGI (MDA-MB-435) [nM] | GI50 (HCC-2998 colon) [nM] | TGI (HCC-2998 colon) [nM] | GI50 (MDA-MB-231 breast) [nM] | TGI (MDA-MB-231 breast) [nM]
1 | C[C@H]1O[C@@H](O[C@H]2[C@@H](O)C[C@H](O[C@H]3[C@@H](O)C[C@H](O[C@H]4CC[C@]5(C)C6C[C@@H](O)[C@]7(C)[C@@H](C8=CC(=O)OC8)CC[C@]7(O)C6CC[C@@H]5C4)O[C@@H]3C)O[C@@H]2C)C[C@H](O)[C@@H]1O (stereo not given in full) | 83.6 | 166 | 37.7 | 124 | 24.6 | 92.8 | 80 | 221 | 60 | 141 | 25.3 | 83 | 26.6 | 213 | 135 | 418 | 147 | 486 | 265 | 1320
2 | C=C1C(=O)O[C@H]2[C@H]1CC/C(COC(=O)NCc1c[nH]c3ccc(OC)cc13)=C\CC[C@@]1(C)O[C@@H]21 | 1740 | 3120 | 2070 | 6200 | 441 | 1910 | 11000 | 23500 | 1190 | 2520 | 2550 | 7650 | 1950 | 3840 | 1270 | 2870 | 5770 | 19000 | 1920 | 4300
3 | CCCCC(SC(=S)N(CC)CC)C(=O)Nc1nc(CC(=O)OCC)cs1 (stereo not given) | 47600 | > 100000 | 45700 | > 100000 | 39000 | > 100000 | 67000 | > 100000 | 29600 | > 100000 | 54300 | > 100000 | 82900 | > 100000 | 31400 | > 100000 | 59300 | > 100000 | 47800 | > 100000
4 | O=[n+]1cnn([O-])c2ccccc21 |  | 94400 |  | 91700 |  | 54400 |  | > 100000 |  | > 100000 |  | > 100000 |  | > 100000 |  | > 100000 |  | > 100000 |  | 31000
